Test results as given in US20030153623A1, “Solid preparation containing sparingly soluble NSAIDs” (Yamanouchi Pharmaceutical Co., Ltd., priority 1998, published 2003).

Tests used:
Assay type in all cases: physicochemical
[1] = Dissolution test, puddle method, first solution pH 1.2, various chemicals (Test Example 5); settings: raw material of the chemical; dissolved for 5 minutes; first solution (pH 1.2) 500 ml; 50 rpm; a dose of each chemical
Experimental: Samples 8-1 and 8-9, and raw materials of various chemicals as the control, were examined by the puddle method in an dissolution test according to the Japanese Pharmacopoeia, and the amount of ibuprofen (μg/ml) dissolved for 5 minutes in the test was determined. The test solution used was the first solution (pH 1.2) in a disintegration test in the Japanese Pharmacopoeia, the amount of the dissolution medium was 500 ml, and the number of puddle revolutions was 50 rpm. Each sample contains a dose of each chemical.

[2] = Dissolution test, puddle method, first solution pH 1.2 (Test Example 4)
Experimental: Samples 7-1 and 7-9, and the raw ibuprofen powder as the control, were examined by the puddle method in an dissolution test according to the Japanese Pharmacopoeia, and the amount of ibuprofen (μg/ml) dissolved for 5 minutes in the test was determined. The test solution used was a first solution (pH 1.2) in a disintegration test in the Japanese Pharmacopoeia, the amount of the dissolutuion medium was 500 ml, and the number of puddle revolutions was 50 rpm. The content of ibuprofen in every sample was 150 mg.

[3] = Dissolution test, puddle method, Japanese Pharmacopoeia, water (Test Example 1); settings: ibuprofen dissolved for 5 minutes; water 500 ml; 100 rpm; ibuprofen content 150 mg
Experimental: Each sample was tested by the puddle method in an dissolution test according to the Japanese Pharmacopoeia, and the amount of ibuprofen (μg/ml) dissolved for 5 minutes in the test was determined. Water was used as the test solution, the amount of the dissolution medium was 500 ml, and the number of puddle revolutions was 100 rpm. The raw ibuprofen material, Samples 5-1 to 5-7, and Sample 6 were examined respectively in the test. The content of ibuprofen in every sample was 150 mg.

Row | Compound | Dissolved amount, Control [1] | Solubility in first solution (pH 1.2), in words ([2]; first solution (pH 1.2) of the disintegration test) | Dissolved amount ([2]; ibuprofen dissolved for 5 minutes, first solution (pH 1.2) 500 ml, 50 rpm, ibuprofen content 150 mg) | Dissolved amount [3]
1 | CC(C(=O)O)c1cccc(C(=O)c2ccccc2)c1 (stereo not shown) [Ketoprofen] | 1.57 µg/mL | – | – | –
2 | COc1ccc2c(c1)c(CC(=O)O)c(C)n2C(=O)c1ccc(Cl)cc1 [Indomethacin] | 0.09 µg/mL | – | – | –
3 | CC(C(=O)O)c1ccc(CC2CCCC2=O)cc1 (stereo not shown) [Loxoprofen] | 101.73 µg/mL | – | – | –
4 | CC(C(=O)O)c1ccc(-c2ccccc2)c(F)c1 (stereo not shown) [Flurbiprofen] | 0.22 µg/mL | – | – | –
5 | CC(C(=O)O)c1cccc(Oc2ccccc2)c1 (stereo not shown) [Phenoprofen] | 11.47 µg/mL | – | – | –
6 | CC(C)Cc1ccc(C(C)C(=O)O)cc1 (stereo not shown) [Ibuprofen, ibuprofen] | 0.00 µg/mL | not dissolved | 0.00 µg/mL | 5.7 µg/mL
7 | CC(C(=O)O)c1ccc2c(c1)Cc1cccnc1O2 (stereo not shown) [Pranoprofen] | 17.81 µg/mL | – | – | –
